Reference: a melting point compilation (Tetko et al.; mined from patent text by program, amines drawn as free bases though some values may be those of a salt)

| SMILES | melting point [°C] |
| --- | --- |
| CC12CCC3c4cc(N)c(OCc5ccccc5)cc4CCC3C1CCC2=O (stereo unspecified) | 205 to 207 |
| Nc1nc(-c2ccccc2OCC(F)(F)F)[nH]c(=O)c1N=O | 210 to 212 |
| Cc1cccc2sc(-n3nc(CCCO)cc3-c3ccc(Cl)cc3)nc12 | 112 to 114 |
| O=Cc1cc(F)cc2c1OCCC2 | 55 to 57 |
| O=C(O)C(=O)NCCCCCC1CCSS1 (stereo unspecified) | 75 to 79 |
| COC(=O)c1cc(S(=O)(=O)NC(=O)Nc2nc(C)cc(C)n2)c[nH]1 | 202 to 204 |
| CCN1CCC(C(c2ccccc2)c2ccccc2)C(=O)C1 (stereo unspecified) | 73 to 74 |
| Fc1ccc2c(c1)NCc1ccccc1O2 | 94 |
| CCOC(=O)c1cnn(-c2ccc(F)cc2)c1 | 119 to 121 |
| CCOC(=O)CCCCOc1ccc([N+](=O)[O-])c(/C=C2\CC(=O)NC2=O)c1 | 112 |
| CC(=O)OCC[C@H](NC(=O)C(F)(F)F)C(=O)O | 134 to 136 |
| C=C1CC(COc2ccc3ccc(=O)oc3c2)(c2ccccc2)OC1=O (stereo unspecified) | 105 to 106 |
| CCn1c(=O)c2[nH]c(/C=C/c3cc(C)ccc3C)nc2n(CC)c1=O | 282 |
| N#Cc1c(C#N)n(-c2ccc(Cl)cc2)c(=O)n1Cc1ccccc1 | 192 to 194 |
| C=CCC(C(=O)OC)C1(C)CCCc2c1[nH]c1ccccc21 (stereo unspecified) | 115 to 116 |
| O=CC(=Cc1ccccc1OCc1ccc([N+](=O)[O-])cc1)C(C=O)=Cc1ccccc1OCc1ccc([N+](=O)[O-])cc1 | 116 to 117 |
| CCCCC[C@@H](CNC(=O)Nc1c(N(C)C)ncnc1N(C)C)c1cccc2c1OCO2 | 151 to 152 |
| CNC(=O)N1CCc2[nH]cnc2C1c1cccs1 (stereo unspecified) | 230 |
| CCCN(CC)c1cc(C)nc(Oc2c(C)cc(Cl)cc2C)c1C | 74 to 76 |
| COC(=O)CCc1cc(O)cc2cc(-c3ccc(O)cc3)oc12 | 167 to 170 |
| COc1cc(N)c(Cl)cc1C(=O)NCC12CCCN(CC1)C2 (stereo unspecified) | 185 to 187 |
| O=C(NC(Cc1ccc(OCc2ccccc2)cc1)c1noc(=O)[nH]1)c1cn2cc(-c3ccc(Cl)cc3)ccc2n1 (stereo unspecified) | 167 |
| NC(=O)N(O)CC(=O)Nc1ccc(Oc2ccccc2)cc1 | 190 |
| COc1ccc2c(=O)nc(-c3ccccn3)sc2c1 | 200 to 202 |
| NC(=O)c1ccc(-c2ccc3nnn(Cc4c(F)cc5ncccc5c4F)c3n2)cc1Cl | 216 to 219 |
| COC(=O)Nc1nc(-c2ccccc2)c(-c2nc3ccccc3c(=O)n2-c2ccccc2Cl)s1 | > 275 |
| COc1nc(C)cc(C)c1C(=O)O | 210 to 215 |

Results, then the compound that gave them:

| melting point [°C] | SMILES |
| --- | --- |
| 196 to 200 | CCOC(=O)NN=Cc1c[nH]c(-c2ccccc2)n1 |
| 136 to 137 | CCCc1c(OCC(O)CSc2ccc(C(=O)CCC(=O)O)c(F)c2)ccc(C(C)=O)c1O (stereo unspecified) |
| 58 to 62 | O=Cc1c(O)c(Cl)cc(Cl)c1F |
| 126 to 130 | CN(Cc1ccc(OC(=O)Cc2ccccc2Nc2c(Cl)cccc2Cl)cc1)CC(C)(C)SN=O |
| 248 to 251 | CNc1ccc(-c2nc(C(=O)Nc3nccs3)c(-c3cccc(OC)c3)[nH]2)cc1 |
| 205 | COc1ccc(CN(C)CCc2ccc(NC(=O)c3cccc4c(=O)c5cc(F)ccc5sc34)cc2)cc1OC |
| 133 | Nc1ccc2ccccc2c1-c1c(P(=O)(c2ccccc2)c2ccccc2)ccc2ccccc12 |
| 96 to 97 | CCOC(=O)C1CCC(Sc2ccc(F)cc2)C(=O)C1 (stereo unspecified) |
| 65 | CC(C)(SN=O)C1COC(=O)N1 (stereo unspecified) |
| 117 to 118 | CCCCC(Cc1ccc(OCCNC(=O)c2ccc(OC(C)C)nc2)cc1)C(=O)O (stereo unspecified) |
| 76 to 77 | Cc1ccc2c(n1)CC(c1ccccc1C)CC2=O (stereo unspecified) |
| 47 to 49 | O=C(NCCCO)OCc1ccccc1 |
| 123 to 124 | NC(=O)C(c1ccc(F)c(F)c1)c1ccccn1 (racemic) |
| 80 to 83 | C=CCNc1ccc(N)cc1[N+](=O)[O-] |
